Converted amounts (≈) assume the structure as drawn.
Assays:
L1210 = experiment: Cytotoxicity against mouse L1210 cells; type: functional, cell-based
KB = experiment: Cytotoxicity against human KB cells; type: functional, cell-based
[1] = system: Trichophyton mentagrophytes; experiment: Antifungal activity against Trichophyton mentagrophytes; type: functional

MIC [1] [µg/mL] | Compound | IC50 (L1210) [µg/mL] | IC50 (KB) [µg/mL]
– | CC(C)=CCCC1(C)C=CC2=C(O1)C(C)(C)C(=O)C(C(=O)C(C)C)=C2O (configuration not stated) [PETIOLIN A] | 2.5 (≈ 6.97 µM) | 4.8 (≈ 13.4 µM)
– | CCC(C)C(=O)C1=C(O)C2=C(OC(C)(CCC=C(C)C)C=C2)C(C)(C)C1=O (configuration not stated) [PETIOLIN B] | > 10 | 9.6 (≈ 25.8 µM)
33.3 (≈ 88.4 µM) | CC(C)=CCC[C@@](C)(O)[C@@H]1CC2=C(O1)/C(=C(/O)C(C)C)C(=O)C(C)(C)C2=O [PETIOLIN C] | 3.3 (≈ 8.77 µM) | 4.9 (≈ 13 µM)

Source: ChEMBL document CHEMBL1150289, “Petiolins A-C, phloroglucinol derivatives from Hypericum pseudopetiolatum var. kiusianum” (Bioorg Med Chem, 2008)
